Measurements taken from patent publication US20260070887A1 (Shenzhen Zhongge Biological Technology Co., Ltd., priority 2022, published 2026).
Read-outs that look alike come from different tables or passages of the source.

Experiments:
OVCAR-3 cells = assay: OVCAR-3 cell proliferation (Cell Titer-Glo, 10 days); type: cell-based, human
Outline: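 IC50 was fitted by nonlinear regression of percent inhibition versus the 0.1% DMSO control. Luminescence was read with Cell Titer-Glo after 10 days of co-culture of logarithmic-phase cells (400/well) with compound at 0.12 nM–10 μM final, in medium with 20% fetal bovine serum and 0.01 mg/mL insulin.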

KIF18A = KIF18A (Homo sapiens (Human), UniProt Q8NI77); assay: KIF18A ATPase activity under tubulin stimulation (ADP-Glo assay); type: biochemical; conditions: KIF18A 30 nM, ATP 150 μM, pig microtubules
Sequence of KIF18A (Q8NI77 whole entry): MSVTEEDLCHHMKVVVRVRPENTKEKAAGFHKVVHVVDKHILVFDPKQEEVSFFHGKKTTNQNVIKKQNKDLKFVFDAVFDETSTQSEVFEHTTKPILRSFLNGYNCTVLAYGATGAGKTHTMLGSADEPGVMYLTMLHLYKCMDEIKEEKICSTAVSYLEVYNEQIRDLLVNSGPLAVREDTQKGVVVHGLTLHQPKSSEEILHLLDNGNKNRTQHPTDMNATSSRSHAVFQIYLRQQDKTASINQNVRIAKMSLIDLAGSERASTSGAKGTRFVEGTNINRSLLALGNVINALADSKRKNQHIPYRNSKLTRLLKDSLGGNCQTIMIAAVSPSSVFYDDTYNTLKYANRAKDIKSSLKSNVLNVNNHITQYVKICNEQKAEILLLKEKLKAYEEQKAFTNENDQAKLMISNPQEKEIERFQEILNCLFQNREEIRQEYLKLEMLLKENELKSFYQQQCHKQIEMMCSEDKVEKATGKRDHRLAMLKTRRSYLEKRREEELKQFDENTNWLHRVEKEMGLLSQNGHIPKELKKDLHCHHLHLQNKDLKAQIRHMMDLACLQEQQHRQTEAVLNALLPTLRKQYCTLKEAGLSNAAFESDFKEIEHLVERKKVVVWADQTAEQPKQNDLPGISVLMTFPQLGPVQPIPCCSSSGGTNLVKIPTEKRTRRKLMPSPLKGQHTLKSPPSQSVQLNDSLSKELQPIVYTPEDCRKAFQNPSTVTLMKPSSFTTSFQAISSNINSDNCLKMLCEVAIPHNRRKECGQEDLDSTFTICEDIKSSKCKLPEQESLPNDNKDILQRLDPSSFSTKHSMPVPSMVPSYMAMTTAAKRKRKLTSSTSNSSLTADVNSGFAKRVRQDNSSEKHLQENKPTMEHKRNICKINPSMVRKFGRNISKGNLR
Sequence of KIF18A (P02550 whole entry partner): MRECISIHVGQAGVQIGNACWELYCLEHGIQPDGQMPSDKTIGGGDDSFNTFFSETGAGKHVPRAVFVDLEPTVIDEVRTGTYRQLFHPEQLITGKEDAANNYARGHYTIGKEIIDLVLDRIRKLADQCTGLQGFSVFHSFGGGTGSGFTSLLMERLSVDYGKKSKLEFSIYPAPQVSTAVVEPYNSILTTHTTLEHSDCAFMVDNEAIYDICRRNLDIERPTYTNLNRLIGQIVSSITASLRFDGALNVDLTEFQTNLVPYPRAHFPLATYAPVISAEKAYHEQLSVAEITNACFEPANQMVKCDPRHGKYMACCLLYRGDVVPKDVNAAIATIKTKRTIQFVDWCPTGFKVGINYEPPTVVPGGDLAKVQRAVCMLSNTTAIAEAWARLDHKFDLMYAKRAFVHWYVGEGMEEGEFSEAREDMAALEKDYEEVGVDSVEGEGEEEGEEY
Sequence of KIF18A (P02554 whole entry partner): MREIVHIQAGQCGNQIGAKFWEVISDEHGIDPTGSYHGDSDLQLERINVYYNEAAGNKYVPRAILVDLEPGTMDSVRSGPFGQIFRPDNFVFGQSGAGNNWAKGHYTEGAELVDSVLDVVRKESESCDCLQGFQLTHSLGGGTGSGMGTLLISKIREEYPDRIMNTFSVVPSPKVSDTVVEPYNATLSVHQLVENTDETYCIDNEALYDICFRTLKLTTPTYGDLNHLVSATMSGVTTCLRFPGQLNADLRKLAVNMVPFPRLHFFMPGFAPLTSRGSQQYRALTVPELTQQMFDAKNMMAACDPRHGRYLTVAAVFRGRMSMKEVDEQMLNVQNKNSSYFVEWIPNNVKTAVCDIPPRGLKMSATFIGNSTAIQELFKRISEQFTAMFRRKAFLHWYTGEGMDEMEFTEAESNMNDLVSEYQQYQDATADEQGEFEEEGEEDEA

Compound | IC50 (OVCAR-3 cells; Homo sapiens, OVCAR-3, 240 h) [nM] | IC50 (KIF18A) [nM] | IC50 (OVCAR-3 cells) [nM]
CC1(C)Cn2c(cc3c(NC(=O)c4ccc(NS(=O)(=O)CCO)nc4N4CCC5(CC4)CC5)cccc32)CO1 [Example 453, N-(3,3-dimethyl-3,4-dihydro-1H-[1,4]oxazino[4,3-a]indol-9-yl)-6-((2-hydroxyethyl)sulfonamido)-2-(6-azaspiro[2.5]octan-6-yl)nicotinamide] | 500 to 5000 | 50 to 500 | 
CC1(C)Cn2c(cc3c(NC(=O)c4ccc(NS(=O)(=O)CCO)cc4N4CCC5(CC4)CC5)ccc(F)c32)CO1 [Example 519, N-(6-fluoro-3,3-dimethyl-3,4-dihydro-1H-[1,4]oxazinyl[4,3-a]indol-9-yl)-4-((2-hydroxyethyl)sulfanilamido)-2-(6-azaspiro[2.5]oct-6-yl)benzamide] |  | 50 to 500 | 50 to 500
CCS(=O)(=O)Nc1ccc(C(=O)Nc2cccc3c2cc2n3CCC(F)(F)C2O)c(N2CCC(=C(F)F)CC2)c1 (stereo not drawn) [Example 381, N-(8,8-difluoro-9-hydroxy-6,7,8,9-tetrahydropyridino[1,2-a]indol-1-yl)-2-(4-(difluoromethylene)piperidin-1-yl)-4-ethyl sulfonamidobenzamide] |  | ≤ 50 | ≤ 50
O=C(Nc1cccc2c1CCN2CC1CC1)c1ccc(NS(=O)(=O)CCO)cc1N1CCC2(CC1)CC2 [Example 5, N-(1-(cyclopropylmethyl)indoline-4-(2-hydroxyethyl)sulfonamido)-2-(6-azaspiro[2.5]octan-6-yl)benzamide] |  | ≤ 50 | 50 to 500
CC1Cn2c(nc3c(NC(=O)c4ccc(NS(=O)(=O)CCO)cc4N4CCC5(CC4)CC5)cccc32)C(C)O1 (stereo not drawn) [Example 444, 2-(6-azaspiro[2.5]oct-6-yl)-N-(1,3-dimethyl-3,4-dihydro-1H-benzo[4,5]imidazo[2,1-c][1,4]oxazin-9-yl)-4-{[(2-hydroxyethyl)sulfonamide]}benzamide] |  | ≤ 50 | ≤ 50
COc1ccc(C(=O)Nc2ccc(NS(=O)(=O)CCO)cc2N2CCC(=C(F)F)CC2)c2cc3n(c12)CC(C)(C)OC3 [Example 566] |  | ≤ 50 | 50 to 500
O=C(Nc1cccc2c1ccn2CC1(F)CC1)c1ccc(NS(=O)(=O)CCO)cc1N1CCC2(CC1)CC2 [Example 283, N-(1-((1-fluorocyclopropyl)methyl)-1H-indol-4-yl)-4-((2-hydroxyethyl)sulfonamido)-2-(6-azaspiro[2.5]oct-6-yl)benzamide] | 50 to 500 | 50 to 500 | 
O=C(Nc1cccc2c1cc1n2CCC(F)(F)C1)c1ccc(NS(=O)(=O)CCO)cc1N1CCC2(CC1)CC2 [Example 128, 2-(6-azaspiro[2.5]oct-6-yl)-N-(8,8-difluoro-6,7,8,9-tetrahydropyridino[1,2-a]indol-1-yl)-4-{[(2-hydroxyethyl)sulfonamide]}benzamide] |  | ≤ 50 | ≤ 50
COC1c2cc3c(NC(=O)c4ccc(NS(=O)(=O)CCO)cc4N4CCC5(CC4)CC5)cccc3n2CCC1(F)F (single isomer, unassigned) [Example 340-P1] |  | 50 to 500 | 50 to 500
Cn1cnc(-c2ccc(NC(=O)c3ccc(NS(=O)(=O)CCO)cc3N3CCC4(CC3)CC4)c3cc4n(c23)CC(C)(C)OC4)c1 [Example 529] | ≤ 50 | 50 to 500 | 
O=C(Nc1cc(F)cc2c1nc1n2CCOC1)c1ccc(NS(=O)(=O)CCO)cc1N1CCC2(CC1)CC2 [Example 368, N-(7-fluoro-3,4-dihydro-1H-benzo[4,5]imidazo[2,1-c][1,4]oxazin-9-yl)-4-((2-hydroxyethyl)sulfonamido)-2-(6-azaspiro[2.5]oct-6-yl)benzamide] | ≤ 50 | ≤ 50 | 
O=C(Nc1cccc2c1ccn2CC1CC1(F)F)c1ccc(NS(=O)(=O)CCO)cc1N1CCC2(CC1)CC2 (stereo not drawn) [Example 286, N-(1-((2,2-difluorocyclopropyl)methyl)-1H-indol-4-yl)-4-((2-hydroxyethyl)sulfonamido)-2-(6-azaspiro[2.5]oct-6-yl)benzamide] | 50 to 500 | ≤ 50 | 
Cc1ccc(NC(=O)c2ccc(NS(=O)(=O)CCO)cc2N2CCC3(CC2)CC3)c2cc3n(c12)CC(C)(C)OC3 [Example 525] |  | 50 to 500 | ≤ 50
CC1Cn2c(cc3c(NC(=O)c4ccc(NS(=O)(=O)CCO)cc4N4CCC5(CC4)CC5)cccc32)C(C)O1 (single isomer, unassigned) [Compound 312-P2B, N-(1,3-dimethyl-3,4-dihydro-1H-[1,4]oxazino[4,3-a]indol-9-yl)-4-((2-hydroxyethyl)sulfonamido)-2-(6-azaspiro[2.5]oct-6-yl)benzamide] |  | 50 to 500 | 50 to 500
O=C(Nc1ccc(OC(F)(F)F)c2c1cc1n2CCC(F)(F)C1)c1ccc(NS(=O)(=O)CCO)cc1N1CCC(=C(F)F)CC1 [Example 585] | 50 to 500 | 50 to 500 | 
CCS(=O)(=O)Nc1ccc(C(=O)Nc2cccc3c2cc2n3CCC(F)(F)C2O)c(N2CCC3(CC2)CC3)c1 (stereo not drawn) [Compound 382, N-(8,8-difluoro-9-hydroxy-6,7,8,9-tetrahydropyridino[1,2-a]indol-1-yl)-4-ethyl sulfonamido-2-(6-azaspiro[2.5]octan-6-yl)benzamide] |  | ≤ 50 | ≤ 50
CC1OCCn2c1cc1c(NC(=O)c3ccc(NS(=O)(=O)CCO)cc3N3CCC4(CC3)CC4)cccc12 (stereo not drawn) [Compound 311-P1, 4-((2-hydroxyethyl)sulfonamido)-N-(1-methyl-3,4-dihydro-1H-[1,4]oxazinyl[4,3-a]indol-9-yl)-2-(6-azaspiro[2.5]oct-6-yl)benzamide] |  | ≤ 50 | 50 to 500

Second part, led by results:

IC50 (OVCAR-3 cells; Homo sapiens, OVCAR-3, 240 h) [nM] | IC50 (KIF18A) [nM] | Compound | IC50 (OVCAR-3 cells) [nM]
50 to 500 | 50 to 500 | O=C(Nc1ccc(OC(F)F)c2c1cc1n2CCC(F)(F)C1)c1ccc(NS(=O)(=O)CCO)cc1N1CCC(=C(F)F)CC1 [Example 586] | 
50 to 500 | 50 to 500 | CC1(C)Cn2c(cc3c(NC(=O)c4ccc(NS(=O)(=O)CCO)cc4N4CCC(=C(F)F)CC4)ccc(OC(F)(F)F)c32)CO1 [Example 574] | 
 | ≤ 50 | O=C(Nc1cccc2c1CC1CCCN21)c1ccc(NS(=O)(=O)CCO)cc1N1CCC2(CC1)CC2 (stereo not drawn) [Example 130, 4-((2-hydroxyethyl)sulfonamide)-2-(6-azaspiro[2.5]octan-6-yl)-N-(2,3,9,9a-tetrahydro-1H-pyrrolo[1,2a]indol-8-yl)benzamide] | 50 to 500
50 to 500 | 50 to 500 | CC(C)Oc1ccc(NC(=O)c2ccc(NS(=O)(=O)CCO)cc2N2CCC3(CC2)CC3)c2cc3n(c12)CC(C)(C)OC3 [Example 531, 4-((2-hydroxyethyl)sulfonamido)-N-(6-isopropoxy-3,3-dimethyl-3,4-dihydro-1H-[1,4]oxazinyl[4,3-a]indol-9-yl)-2-(6-azaspiro[2.5]oct-6-yl)benzamide] | 
≤ 50 | ≤ 50 | CCS(=O)(=O)Nc1ccc(C(=O)Nc2cccc3c2cc2n3CCCC2O)c(N2CCC3(CC2)CC3)c1 (stereo not drawn) [Example 373, 4-(ethylsulfonamido)-N-(9-hydroxy-6,7,8,9-tetrahydropyridino[1,2-a]indol-1-yl)-2-(6-azaspiro[2.5]oct-6-yl)benzamide] | 
50 to 500 | ≤ 50 | O=C(Nc1cccc2c1OCC1CC(F)(F)CCN21)c1ccc(NS(=O)(=O)CCO)cc1N1CCC2(CC1)CC2 (stereo not drawn) [Compound 400, N-(8,8-difluoro-6,6a,7,8,9,10-hexahydrobenzo[b]pyrido[1,2-d][1,4]oxazin-4-yl)-4-((2-hydroxyethyl)sulfonamido)-2-(6-azaspiro[2.5]oct-6-yl)benzamide] | 
50 to 500 | 50 to 500 | CCS(=O)(=O)Nc1ccc(C(=O)Nc2cccc3c2cc2n3CCCC2O)c(N2CCC3(CC2)CC3)c1 (single isomer, unassigned) [Example 373-P1, 4-(ethylsulfonamido)-N-(9-hydroxy-6,7,8,9-tetrahydropyridino[1,2-a]indol-1-yl)-2-(6-azaspiro[2.5]oct-6-yl)benzamide] | 
≤ 50 | ≤ 50 | O=C(Nc1cccc2c1cc1n2CCC(F)(F)C1O)c1ccc(NS(=O)(=O)CCO)cc1N1CCC(=C(F)F)CC1 (stereo not drawn) [Compound 383, N-(8,8-difluoro-9-hydroxy-6,7,8,9-tetrahydropyridino[1,2-a]indol-1-yl)-2-(4-(difluoromethylene)piperidin-1-yl)-4-((2-hydroxyethyl)sulfonamido)benzamide] | 
 | ≤ 50 | CC1OCCn2c1cc1c(NC(=O)c3ccc(NS(=O)(=O)CCO)cc3N3CCC4(CC3)CC4)cccc12 (stereo not drawn) [Compound 311-P2, 4-((2-hydroxyethyl)sulfonamido)-N-(1-methyl-3,4-dihydro-1H-[1,4]oxazinyl[4,3-a]indol-9-yl)-2-(6-azaspiro[2.5]oct-6-yl)benzamide] | ≤ 50
 | 50 to 500 | CCS(=O)(=O)Nc1ccc(C(=O)Nc2cccc3c2cc2n3CCCC2O)c(N2CCC3(CC2)CC3)c1 (single isomer, unassigned) [Example 373-P2, 4-(ethylsulfonamido)-N-(9-hydroxy-6,7,8,9-tetrahydropyridino[1,2-a]indol-1-yl)-2-(6-azaspiro[2.5]oct-6-yl)benzamide] | 50 to 500
